Results taken from patent US10065990B2, “Cyclic peptide compound, and preparation method, pharmaceutical composition and use thereof” (HANGZHOU GUANYU BIO-MEDICAL CO., LTD, priority 2013, dated 2018).
Like-named read-outs stand apart in the source and are kept apart here.

Assays:
HDAC7 = target: T1, HDAC7 (Homo sapiens, UniProt Q8WUI4); assay: HDAC biochemical activity measurement (fluorescent substrate deacetylation);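 also: fluorogenic deacetylation assay using acetyl-lysine substrate at 20 µM, enzyme and compound incubated 30 min at 37 °C, then developer added, fluorescence read at 360/460 nm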; settings: HDAC7; 37° C. 30 minutes
T1 sequence (Q8WUI4 1-952): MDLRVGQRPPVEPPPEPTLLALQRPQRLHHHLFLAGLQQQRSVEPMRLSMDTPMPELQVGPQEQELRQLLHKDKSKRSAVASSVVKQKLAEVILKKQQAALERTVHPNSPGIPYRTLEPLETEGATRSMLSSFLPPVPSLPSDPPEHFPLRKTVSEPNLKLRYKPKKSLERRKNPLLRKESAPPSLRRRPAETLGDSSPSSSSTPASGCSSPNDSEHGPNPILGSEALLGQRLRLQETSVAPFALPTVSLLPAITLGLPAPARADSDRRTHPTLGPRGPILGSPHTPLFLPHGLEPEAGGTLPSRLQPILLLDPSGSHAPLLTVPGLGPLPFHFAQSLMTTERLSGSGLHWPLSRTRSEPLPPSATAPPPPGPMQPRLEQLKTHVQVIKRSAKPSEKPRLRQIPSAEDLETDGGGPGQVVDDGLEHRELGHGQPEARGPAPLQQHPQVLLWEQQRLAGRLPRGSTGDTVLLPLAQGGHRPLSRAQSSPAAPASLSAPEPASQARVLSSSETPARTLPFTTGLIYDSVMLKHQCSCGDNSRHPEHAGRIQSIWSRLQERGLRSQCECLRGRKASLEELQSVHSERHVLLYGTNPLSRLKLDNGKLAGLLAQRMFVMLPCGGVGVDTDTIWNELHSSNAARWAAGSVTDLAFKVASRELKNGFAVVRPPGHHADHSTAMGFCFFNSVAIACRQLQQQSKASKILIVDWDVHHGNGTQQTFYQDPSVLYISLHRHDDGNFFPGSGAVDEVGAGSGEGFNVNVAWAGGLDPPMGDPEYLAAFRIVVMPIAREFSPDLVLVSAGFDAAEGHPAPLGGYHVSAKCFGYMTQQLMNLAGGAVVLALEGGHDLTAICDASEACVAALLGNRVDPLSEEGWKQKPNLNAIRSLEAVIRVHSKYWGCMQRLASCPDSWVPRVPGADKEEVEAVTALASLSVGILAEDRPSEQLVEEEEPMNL

[1] = system: A549 (human lung cancer cells); assay: MTT cancer cell growth inhibition; type: cell-based; settings: Homo sapiens, A549, 72 h, MTT, 72 hours incubation, read-out: GI50 A54
Summary of the method: (§1)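 Seed 1500 cells/well, incubate overnight. Add compound, 10^−5 to 10^−10 M final, n=3; culture 72 h, 37° C., 5% CO2. Add MTT, 4 h. Discard supernatant, dissolve in DMSO. Read 570 nm; calculate viability and GI50.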

[2] = system: BGC-823 (human gastric cancer cells); assay: MTT cancer cell growth inhibition; type: cell-based; settings: Homo sapiens, BGC-823, 72 h, MTT, 72 hours incubation, read-out: GI50 BG
Summary of the method: as §1

[3] = system: Bel-7402 (human hepatoma cells); assay: MTT cancer cell growth inhibition; type: cell-based; settings: Homo sapiens, Bel-7402, 72 h, MTT, 72 hours incubation, Bel-7402 cells; read-out: GI50 Bel-7402
Summary of the method: as §1

[4] = system: DU145 (human prostate cancer cells); assay: MTT cancer cell growth inhibition; type: cell-based; settings: Homo sapiens, DU-145, 72 h, MTT, 72 hours incubation, read-out: GI50 Du1
Summary of the method: as §1

[5] = system: H1975 (non-small cell lung adenocarcinoma); assay: MTT cancer cell growth inhibition; type: cell-based; settings: Homo sapiens, NCI-H1975, 72 h, MTT, 72 hours incubation, H1975 cells; read-out: GI50 H1975
Summary of the method: as §1

[6] = system: HCC827 (human non-small cell lung cancer cells); assay: MTT cancer cell growth inhibition; type: cell-based; settings: Homo sapiens, HCC827, 72 h, MTT, 72 hours incubation, HCC827 cells; read-out: GI50 HCC827
Summary of the method: as §1

[7] = system: HT1080 (human fibrosarcoma cells); assay: MTT cancer cell growth inhibition; type: cell-based; settings: Homo sapiens, HT-1080, 72 h, MTT, 72 hours incubation, read-out: GI50 HT1
Summary of the method: as §1

[8] = system: Hela (human cervical cancer cells); assay: MTT cancer cell growth inhibition; type: cell-based; settings: Homo sapiens, HeLa, 72 h, MTT, 72 hours incubation, read-out: GI50 Hela
Summary of the method: as §1

[9] = system: Huh-7 (human hepatoma cells); assay: MTT cancer cell growth inhibition; type: cell-based; settings: Homo sapiens, Huh-7, 72 h, MTT, 72 hours incubation, Huh-7 cells; read-out: GI50 Huh-7
Summary of the method: as §1

[10] = system: K562 (human leukemia cells); assay: MTT cancer cell growth inhibition; type: cell-based; settings: Homo sapiens, K562, 72 h, MTT, 72 hours incubation, K562 cells; read-out: GI50 K562
Summary of the method: as §1

[11] = system: KBM-5 (human chronic myelogenous leukemia); assay: MTT cancer cell growth inhibition; type: cell-based; settings: Homo sapiens, KBM5, 72 h, MTT, 72 hours incubation, KBM-5 cells; read-out: GI50 KBM-5
Summary of the method: as §1

[12] = system: KBM5-T315I (human chronic myelogenous leukemia); assay: MTT cancer cell growth inhibition; type: cell-based; settings: Homo sapiens, 72 h, MTT, 72 hours incubation, KBM5-T315I cells; read-out: GI50 KBM5-T315I
Summary of the method: as §1

[13] = system: MCF-7 (human breast cancer cells); assay: MTT cancer cell growth inhibition; type: cell-based; settings: Homo sapiens, MCF7, 72 h, 72 hours incubation, read-out: GI50 MCF
Summary of the method: as §1

[14] = system: MDA-MB-231 (breast cancer cells); assay: MTT cancer cell growth inhibition; type: cell-based; settings: Homo sapiens, MDA-MB-231, 72 h, read-out: GI50 MDA-MB-231, MTT, 72 hours incubation, MDA-MB-231 cells
Summary of the method: as §1

[15] = system: MOLT-4 (human acute lymphoblastic leukemia cells); assay: MTT cancer cell growth inhibition; type: cell-based; settings: Homo sapiens, MOLT-4, 72 h, MTT, 72 hours incubation, read-out: GI50 Mol
Summary of the method: as §1

[16] = system: N-87 (human gastric cancer cells); assay: MTT cancer cell growth inhibition; type: cell-based; settings: Homo sapiens, 72 h, MTT, 72 hours incubation, N-87 cells; read-out: GI50 N-87
Summary of the method: as §1

[17] = system: PANC-1 (Pac-1, human pancreatic cancer cells); assay: MTT cancer cell growth inhibition; type: cell-based; settings: Homo sapiens, PANC-1, 72 h, MTT, 72 hours incubation, read-out: GI50 PAN
Summary of the method: as §1

[18] = system: SGC-7901 (human gastric cancer cells); assay: MTT cancer cell growth inhibition; type: cell-based; settings: Homo sapiens, SGC-7901, 72 h, MTT, 72 hours incubation, SGC-7901 cells; read-out: GI50 SGC-7901
Summary of the method: as §1

[19] = system: U937 (human leukemia cells); assay: MTT cancer cell growth inhibition; type: cell-based; settings: Homo sapiens, U-937, 72 h, MTT, 72 hours incubation, read-out: GI50 U93
Summary of the method: as §1

[20] = system: lncap (prostate cancer cells); assay: MTT cancer cell growth inhibition; type: cell-based; settings: Homo sapiens, LNCaP, 72 h, MTT, 72 hours incubation, read-out: GI50 lnca
Summary of the method: as §1

IC50 HDAC7 (HDAC7) | GI50 [3] [nM] | GI50 [5] [nM] | GI50 [6] [nM] | GI50 [9] [nM] | GI50 [10] [nM] | GI50 [11] [nM] | GI50 [12] [nM] | GI50 [14] [nM] | GI50 [16] [nM] | GI50 [18] [nM] | GI50 [1] [nM] | GI50 [2] [nM] | GI50 [4] [nM] | GI50 [7] [nM] | GI50 [8] [nM] | GI50 [13] [nM] | GI50 [15] [nM] | GI50 [17] [nM] | GI50 [19] [nM] | SMILES | further results
no activity | 38 | 35 | 41 | 37 | 23 | 15 | 33 | 18 | 36 | 28 |  |  |  |  |  |  |  |  |  | C/C=C1\NC(=O)c2cc(SC)cc(n2)CNC(=O)C[C@@H](/C=C/CCSC(=O)CCCCCCC)OC(=O)[C@H](C)NC1=O [Compound 181] | GI50 ([1]; A549 cells): 50 nM; GI50 ([2]; BGC-823 cells): 30 nM; GI50 ([4]; DU145 cells): 60 nM; GI50 ([7]; HT1080 cells): 60 nM; GI50 ([8]; Hela cells): 70 nM; GI50 ([13]; MCF-7 cells): 70 nM; GI50 ([15]; MOLT-4 cells): 80 nM; GI50 ([17]; PANC-1 cells): 40 nM; GI50 ([19]; U937 cells): 20 nM; GI50 ([20]; lncap cells): 80 nM
no activity | 36 | 27 | 57 | 38 | 37 | 53 | 35 | 38 | 28 | 73 | 50 | 30 | 60 | 80 | 80 | 20 | 20 | 80 | 50 | C/C=C1\NC(=O)c2ccc(F)c(n2)CNC(=O)C[C@@H](/C=C/CCS)OC(=O)[C@H](CC)NC1=O [Compound 111] | GI50 [20]: 20 nM
no activity | 59 | 42 | 39 | 13 | 29 | 93 | 26 | 31 | 31 | 24 | 50 | 30 | 10 | 70 | 90 | 30 | 20 | 70 | 30 | C/C=C1\NC(=O)c2ncc(F)c(n2)CNC(=O)C[C@@H](/C=C/CCSC(C)=O)OC(=O)[C@H](C(C)C)NC1=O [Compound 97] | GI50 [20]: 20 nM
no activity | 34 | 27 | 34 | 38 | 37 | 53 | 62 | 38 | 41 | 51 | 50 | 40 | 30 | 30 | 50 | 60 | 30 | 30 | 20 | C/C=C1\NC(=O)c2cc(F)cc(n2)CNC(=O)C[C@@H](/C=C/CCSC(=O)CCCCC)OC(=O)[C@H](C(C)C)NC1=O [Example 37] | GI50 [20]: 30 nM
no activity | 73 | 45 | 32 | 23 | 26 | 35 | 41 | 78 | 84 | 31 |  |  |  |  |  |  |  |  |  | C/C=C1\NC(=O)c2cc(SC)cc(n2)CNC(=O)C[C@@H](/C=C/CCSC(=O)CCCCCCC)OC(=O)[C@H](CC)NC1=O [Compound 172] | GI50 ([1]; A549 cells): 30 nM; GI50 ([2]; BGC-823 cells): 60 nM; GI50 ([4]; DU145 cells): 40 nM; GI50 ([7]; HT1080 cells): 60 nM; GI50 ([8]; Hela cells): 50 nM; GI50 ([13]; MCF-7 cells): 60 nM; GI50 ([15]; MOLT-4 cells): 20 nM; GI50 ([17]; PANC-1 cells): 80 nM; GI50 ([19]; U937 cells): 40 nM; GI50 ([20]; lncap cells): 20 nM
no activity | 79 | 63 | 21 | 42 | 39 | 31 | 33 | 31 | 55 | 44 | 30 | 100 | 60 | 50 | 130 | 80 | 50 | 30 | 70 | C=C1NC(=O)c2nc(ccc2F)CNC(=O)C[C@@H](/C=C/CCS)OC(=O)[C@H](C)NC1=O [Compound 140] | GI50 [20]: 20 nM
